# Measured values as given in patent US20050256134A1, “Use of creatine analogues and creatine kinase modulators for the prevention and treatment of glucose metabolic disorders” (AVICENA GROUP, INC., priority 1995, published 2005).
# Tests used:
# creatine kinase = conditions: forward reaction, in vitro and in vivo; cited from earlier work
# terminal cancer patients = experiment: Phase I/II open label dose escalation study, glucose levels, 3 hour continuous infusion; assay type: in vivo, human
# Protocol: Cyclocreatine was tested in humans in a phase I/II open label dose escalation study. […] Cyclocreatine was administered at doses that ranged from 10 mg/Kg to 100 mg/Kg. The schedule of administration of cyclocreatine is described in Table 4.
# Cohorts of 3 patients were administered drug at each dose level, via a 3 hour continuous infusion in one liter volume of saline. The first week patients received cyclocreatine once, the second week patients received cyclocreatine twice, the third week three times, the fourth week four times, the fifth week five times. On weeks six and seven, no drug was administered to allow the drug to wash out. On week eight, cyclocreatine was given five times. The study included a total of 23 patients (18 male, 5 female) with a median age of 71 years (range 54-85). The patients had different types of malignancies. Eligibility requirements included patients who have failed standard therapy or for whom no therapy was available, normal organ function, have recovered from prior therapies, probability of survival of greater than three months. Reasons for exclusion included: major surgery, life threatening concurrent illness and CNS metastasis. Blood samples were collected at baseline and 1 day before and after the last weekly drug administration on days 1, 7, 9, 14, 17, 21, 25, 28, 33, 40, 47, 49, 54, 61, and 69. Glucose levels were determined for these collected blood samples. […] Not all patients experienced a significant drop in glucose although the trend was there. FIGS. 14 and 15 illustrate graphically individual patients' glucose levels upon treatment with 60 mg/Kg or 80 mg/Kg cyclocreatine. Patient (A) at the 80 mg/Kg dose was diabetic and had many serious complications due to their disease. […] It should be noted that an insufficient number of readings was made shortly after drug administration. It is interesting to note that several patients who were diabetic or had higher glucose levels than normal did respond to cyclocreatine, onen example being illustrated in FIG. 16.
smiles,measurement,setting,value
NC1=NCCN1CC(=O)O [cyclocreatine],phosphorylation by creatine kinase,creatine kinase,phosphorylated efficiently
same,patients with significant hypoglycemia,terminal cancer patients; 80 mg/Kg,2 out of 3
same,patients with significant hypoglycemia,terminal cancer patients; 100 mg/Kg,2 out of 7
same,Glucose,"terminal cancer patients; Ave, 40 mg/Kg, Study Day 0",125 mg/dL
same,Glucose,"terminal cancer patients; Ave, 40 mg/Kg, Study Day 1",105 mg/dL
same,Glucose,"terminal cancer patients; Ave, 40 mg/Kg, Study Day 7",119 mg/dL
same,Glucose,"terminal cancer patients; Ave, 40 mg/Kg, Study Day 9",125 mg/dL
same,Glucose,"terminal cancer patients; Ave, 40 mg/Kg, Study Day 14",129 mg/dL
same,Glucose,"terminal cancer patients; Ave, 40 mg/Kg, Study Day 17",139 mg/dL
same,Glucose,"terminal cancer patients; Ave, 40 mg/Kg, Study Day 21",112 mg/dL
same,Glucose,"terminal cancer patients; Ave, 40 mg/Kg, Study Day 25",161 mg/dL
same,Glucose,"terminal cancer patients; Ave, 40 mg/Kg, Study Day 28",122 mg/dL
same,Glucose,"terminal cancer patients; Ave, 40 mg/Kg, Study Day 33",149 mg/dL
same,Glucose,"terminal cancer patients; Ave, 40 mg/Kg, Study Day 40",104 mg/dL
same,Glucose,"terminal cancer patients; Ave, 40 mg/Kg, Study Day 47",99 mg/dL
same,Glucose,"terminal cancer patients; Ave, 40 mg/Kg, Study Day 49",128 mg/dL
same,Glucose,"terminal cancer patients; Ave, 40 mg/Kg, Study Day 54",132 mg/dL
same,Glucose,"terminal cancer patients; Ave, 40 mg/Kg, Study Day 61",105 mg/dL
same,Glucose,"terminal cancer patients; Ave, 40 mg/Kg, Study Day 69",119 mg/dL
same,Glucose,"terminal cancer patients; Ave, 60 mg/Kg, Study Day 7",37 mg/dL
same,Glucose,"terminal cancer patients; Patient 2, 7, 40 mg/Kg, Study Day 0",115 mg/dL
same,Glucose,"terminal cancer patients; Patient 2, 7, 40 mg/Kg, Study Day 1",95 mg/dL
same,Glucose,"terminal cancer patients; Patient 2, 7, 40 mg/Kg, Study Day 7",153 mg/dL
same,Glucose,"terminal cancer patients; Patient 2, 7, 40 mg/Kg, Study Day 9",123 mg/dL
same,Glucose,"terminal cancer patients; Patient 2, 7, 40 mg/Kg, Study Day 14",102 mg/dL
same,Glucose,"terminal cancer patients; Patient 2, 7, 40 mg/Kg, Study Day 17",117 mg/dL
same,Glucose,"terminal cancer patients; Patient 2, 7, 40 mg/Kg, Study Day 21",104 mg/dL
same,Glucose,"terminal cancer patients; Patient 2, 7, 40 mg/Kg, Study Day 25",122 mg/dL
same,Glucose,"terminal cancer patients; Patient 2, 7, 40 mg/Kg, Study Day 28",154 mg/dL
same,Glucose,"terminal cancer patients; Patient 2, 8, 40 mg/Kg, Study Day 0",222 mg/dL
same,Glucose,"terminal cancer patients; Patient 2, 8, 40 mg/Kg, Study Day 1",116 mg/dL
same,Glucose,"terminal cancer patients; Patient 2, 8, 40 mg/Kg, Study Day 9",148 mg/dL
same,Glucose,"terminal cancer patients; Patient 2, 8, 40 mg/Kg, Study Day 14",184 mg/dL
same,Glucose,"terminal cancer patients; Patient 2, 8, 40 mg/Kg, Study Day 17",251 mg/dL
same,Glucose,"terminal cancer patients; Patient 2, 8, 40 mg/Kg, Study Day 25",278 mg/dL
same,Glucose,"terminal cancer patients; Patient 2, 8, 40 mg/Kg, Study Day 33",244 mg/dL
same,Glucose,"terminal cancer patients; Patient 2, 8, 40 mg/Kg, Study Day 40",139 mg/dL
same,Glucose,"terminal cancer patients; Patient 2, 8, 40 mg/Kg, Study Day 49",129 mg/dL
same,Glucose,"terminal cancer patients; Patient 2, 8, 40 mg/Kg, Study Day 54",195 mg/dL
same,Glucose,"terminal cancer patients; Patient 2, 8, 40 mg/Kg, Study Day 69",205 mg/dL
same,Glucose,"terminal cancer patients; Patient 2, 9, 40 mg/Kg, Study Day 0",98 mg/dL
same,Glucose,"terminal cancer patients; Patient 2, 9, 40 mg/Kg, Study Day 1",87 mg/dL
same,Glucose,"terminal cancer patients; Patient 2, 9, 40 mg/Kg, Study Day 7",117 mg/dL
same,Glucose,"terminal cancer patients; Patient 2, 9, 40 mg/Kg, Study Day 9",148 mg/dL
same,Glucose,"terminal cancer patients; Patient 2, 9, 40 mg/Kg, Study Day 14",126 mg/dL
same,Glucose,"terminal cancer patients; Patient 2, 9, 40 mg/Kg, Study Day 17",139 mg/dL
same,Glucose,"terminal cancer patients; Patient 2, 9, 40 mg/Kg, Study Day 21",90 mg/dL
same,Glucose,"terminal cancer patients; Patient 2, 9, 40 mg/Kg, Study Day 25",114 mg/dL
same,Glucose,"terminal cancer patients; Patient 2, 9, 40 mg/Kg, Study Day 28",87 mg/dL
same,Glucose,"terminal cancer patients; Patient 2, 9, 40 mg/Kg, Study Day 33",121 mg/dL
same,Glucose,"terminal cancer patients; Patient 2, 9, 40 mg/Kg, Study Day 40",92 mg/dL
same,Glucose,"terminal cancer patients; Patient 2, 9, 40 mg/Kg, Study Day 47",105 mg/dL
same,Glucose,"terminal cancer patients; Patient 2, 9, 40 mg/Kg, Study Day 49",132 mg/dL
same,Glucose,"terminal cancer patients; Patient 2, 9, 40 mg/Kg, Study Day 54",105 mg/dL
same,Glucose,"terminal cancer patients; Patient 2, 9, 40 mg/Kg, Study Day 61",104 mg/dL
same,Glucose,"terminal cancer patients; Patient 2, 9, 40 mg/Kg, Study Day 69",92 mg/dL
same,Glucose,"terminal cancer patients; Patient 8, 40 mg/Kg, Study Day 0",94 mg/dL
same,Glucose,"terminal cancer patients; Patient 8, 40 mg/Kg, Study Day 1",114 mg/dL
same,Glucose,"terminal cancer patients; Patient 8, 40 mg/Kg, Study Day 7",96 mg/dL
same,Glucose,"terminal cancer patients; Patient 8, 40 mg/Kg, Study Day 9",115 mg/dL
same,Glucose,"terminal cancer patients; Patient 8, 40 mg/Kg, Study Day 14",87 mg/dL
same,Glucose,"terminal cancer patients; Patient 8, 40 mg/Kg, Study Day 17",91 mg/dL
same,Glucose,"terminal cancer patients; Patient 8, 40 mg/Kg, Study Day 21",103 mg/dL
same,Glucose,"terminal cancer patients; Patient 8, 40 mg/Kg, Study Day 25",96 mg/dL
same,Glucose,"terminal cancer patients; Patient 8, 40 mg/Kg, Study Day 28",125 mg/dL
same,Glucose,"terminal cancer patients; Patient 8, 40 mg/Kg, Study Day 33",122 mg/dL
same,Glucose,"terminal cancer patients; Patient 8, 40 mg/Kg, Study Day 40",67 mg/dL
same,Glucose,"terminal cancer patients; Patient 8, 40 mg/Kg, Study Day 47",116 mg/dL
same,Glucose,"terminal cancer patients; Patient 8, 40 mg/Kg, Study Day 49",122 mg/dL
same,Glucose,"terminal cancer patients; Patient 8, 40 mg/Kg, Study Day 54",136 mg/dL
same,Glucose,"terminal cancer patients; Patient 8, 40 mg/Kg, Study Day 61",102 mg/dL
same,Glucose,"terminal cancer patients; Patient 8, 40 mg/Kg, Study Day 69",135 mg/dL
same,Glucose,"terminal cancer patients; Patient 9, 40 mg/Kg, Study Day 0",118 mg/dL
same,Glucose,"terminal cancer patients; Patient 9, 40 mg/Kg, Study Day 1",114 mg/dL
same,Glucose,"terminal cancer patients; Patient 9, 40 mg/Kg, Study Day 7",73 mg/dL
same,Glucose,"terminal cancer patients; Patient 9, 40 mg/Kg, Study Day 9",130 mg/dL
same,Glucose,"terminal cancer patients; Patient 9, 40 mg/Kg, Study Day 14",151 mg/dL
same,Glucose,"terminal cancer patients; Patient 9, 40 mg/Kg, Study Day 17",145 mg/dL
same,Glucose,"terminal cancer patients; Patient 9, 40 mg/Kg, Study Day 21",156 mg/dL
same,Glucose,"terminal cancer patients; Patient 9, 40 mg/Kg, Study Day 25",210 mg/dL
same,Glucose,"terminal cancer patients; Patient 9, 40 mg/Kg, Study Day 28",151 mg/dL
same,Glucose,"terminal cancer patients; Patient 9, 40 mg/Kg, Study Day 33",109 mg/dL
same,Glucose,"terminal cancer patients; Patient 9, 40 mg/Kg, Study Day 40",128 mg/dL
same,Glucose,"terminal cancer patients; Patient 9, 40 mg/Kg, Study Day 47",75 mg/dL
same,Glucose,"terminal cancer patients; Patient 9, 40 mg/Kg, Study Day 54",145 mg/dL
same,Glucose,"terminal cancer patients; Patient 9, 40 mg/Kg, Study Day 61",121 mg/dL
same,Glucose,"terminal cancer patients; Patient 9, 40 mg/Kg, Study Day 69",89 mg/dL
same,Glucose,"terminal cancer patients; Patient 10, 40 mg/Kg, Study Day 0",100 mg/dL
same,Glucose,"terminal cancer patients; Patient 10, 40 mg/Kg, Study Day 7",156 mg/dL
same,Glucose,"terminal cancer patients; Patient 10, 40 mg/Kg, Study Day 9",84 mg/dL
same,Glucose,"terminal cancer patients; Patient 10, 40 mg/Kg, Study Day 14",123 mg/dL
same,Glucose,"terminal cancer patients; Patient 10, 40 mg/Kg, Study Day 17",93 mg/dL
same,Glucose,"terminal cancer patients; Patient 10, 40 mg/Kg, Study Day 21",106 mg/dL
same,Glucose,"terminal cancer patients; Patient 10, 40 mg/Kg, Study Day 25",143 mg/dL
same,Glucose,"terminal cancer patients; Patient 10, 40 mg/Kg, Study Day 28",91 mg/dL
same,Glucose,"terminal cancer patients; Patient 10, 40 mg/Kg, Study Day 40",94 mg/dL
same,Glucose,"terminal cancer patients; Patient 10, 40 mg/Kg, Study Day 47",100 mg/dL
same,Glucose,"terminal cancer patients; Patient 10, 40 mg/Kg, Study Day 54",79 mg/dL
same,Glucose,"terminal cancer patients; Patient 10, 40 mg/Kg, Study Day 61",92 mg/dL
same,Glucose,"terminal cancer patients; Patient 10, 40 mg/Kg, Study Day 69",74 mg/dL
same,Glucose,"terminal cancer patients; Patient 11, 60 mg/Kg, Study Day 7",141 mg/dL
same,Glucose,"terminal cancer patients; Patient 12, 60 mg/Kg, Study Day 7",72 mg/dL
same,Glucose,"terminal cancer patients; Patient 13, 60 mg/Kg, Study Day 7",48 mg/dL
same,glucose response,"terminal cancer patients; Patient (A), diabetic, 80 mg/Kg",did not seem to respond well
same,clinical observation,terminal cancer patients; highest tested drug concentrations (80 and 100 mg/Kg),became lethargic and hypoglycemic and required immediate intervention to revert glucose levels
same,Glucose Levels,terminal cancer patients; lower tested drug concentrations,trend towards a drop in glucose levels shortly after drug administration
same,glucose response,terminal cancer patients; several patients who were diabetic or had higher glucose levels than normal,did respond
